Data from patent EP2070527A1, “Inhibitors of fungal biofilm-formation” (QuoNova Europe GmbH, priority 2007, dated 2009).

Test system: Candida paratropicalis
Experiment: MBEC assay (biofilm inhibition)
Type: cell-based
Conditions: biofilm grown 24 hours at 37±2°C on pegs, logR = log reduction; for log reduction at 100 µM: test compound 100 µm (so in the source); for log reduction at 10 µM: test compound 10 µM
Method: TEST METHOD: MBEC™ Assay The compound to be tested was dissolved in DMSO to obtain a concentration that was 100 times that of the final concentration required (1mM for the 10µM assay and 10mM for the 100µM assay). 1.5 µL of the above solution was placed into each well of a 96 well plate (final volume in each well = 150 µL, final DMSO concentration of 1% (v/v)). To grow the organism and form a biofilm, a cryogenic stock of Candida paratropicalis (at - 70°C) was used. A first sub-culture was streaked out onto TSA (tryptic soy agar), upon which the plate was incubated at 37±2°C for 24 hours and stored wrapped in parafilm at 4 °C afterwards. From this first sub-culture, a second sub-culture was streaked out onto TSA. The plate was incubated at 37±2°C for 24 hours. The second sub-culture was used within 24 hours starting from the time it was first removed from incubation. Using the second sub-culture an inoculum in 3 mL sterile water that matches a 0.5 McFarland Standard (1.5 x 10^8 cells per mL) was created in a glass test tube using a sterile cotton swab. […] of this solution was diluted in 22mL TSB (tryptic soy broth) medium to a cell density of approximately 6.0 x 10^5 cells per mL. The diluted organism was inverted 3-5 times to achieve uniform mixing of the organism. One sample (100µl) of the diluted organism was used for an inoculum check by serially diluting and spot plating on TSA. To prepare a challenge plate, 20 µl of the diluted organism was added to each well of a 96 well plate except the sterility control wells. The test compounds were added to the wells to make up final concentrations of 10 µM and 100 µM (1.5 µL /well) in the designated location in the test plate. 128.5 µL of TSB was placed in each of the wells. 130 µL of media was added to the growth control wells. 128.5 µL of media+ 1.5 µL of DMSO were added to a second set of growth control wells. 150 µL of media was added to the sterility controls. Each sample was run in triplicate. The plate was covered by a lid with a peg per well and wrapped in parafilm and placed on a shaker in a humidified incubator (GeneVac) at 37±2°C for 24 hours set at 110 rpm. Rinse plate(s) of 0.9% saline (200 µL per well) were prepared in a sterile 96 well microtitre plate. Lid-associated pegs were rinsed in 0.9% saline for approximately 1-2 minutes. The peg lid was transferred to the recovery media (1.0% Tween 80 in CAMHB) then sonicated for 30 minutes to dislodge surviving biofilm. Following sonication, 100 µl from each well of the 96 well plate was placed into the first 12 wells of the first row of a 96 well microtiter plate. 180 µl of 0.9% sterile saline was placed in the remaining rows. A serial dilution (10^0-10^-7) was prepared by moving 20 µl down each of the 8 rows. 20µl from each well was removed and spot plated on a prepared TSA. In the remaining recovery plate, 100 µl of fresh growth media (1.0% Tween 80 in CAMHB) was placed in each well to replace the amount removed. The recovery plate was covered with a regular lid and incubated at 37±2°C for 24 hours and read visually to confirm antimicrobial activity of the test compounds. The following compounds have been tested regarding their efficiency (logR = log reduction) against Candida paratropicalis: […]

| Compound | log reduction at 100 µM | log reduction at 10 µM |
| --- | --- | --- |
| CCCCCCCCCC(=O)CC(=O)N(C)c1ccc(F)cc1 [Example 1] | 0.62 |  |
| CCCCCCC(=O)CC(=O)Nc1ccno1 [Example 2] | 0.65 | 1.12 |
| CCCCCCCCCC(=O)CC(=O)Nc1ccno1 [Example 3] | 1.1 | 1.26 |
| CCCCCCCCCC(=O)CC(=O)Nc1nc(C)co1 [Example 4] | 1.71 |  |
| CCCCCCCCCC(=O)CC(=O)N1CCN(C)CC1 [Example 5] | 2.83 |  |
| CCCCCCCCCC(=O)CC(=O)N1CCC(N(C)C)C1 (centres unmarked) [Example 6] | 3.87 |  |
